From the Kinase Knowledgebase extract (Sharma et al. 2016)

Target: PIK3CG (human) (UniProt P48736)
Test: Assessment of PIK3CG Kinase Activity

Sequence of PIK3CG (human) (P48736 whole entry, looked up): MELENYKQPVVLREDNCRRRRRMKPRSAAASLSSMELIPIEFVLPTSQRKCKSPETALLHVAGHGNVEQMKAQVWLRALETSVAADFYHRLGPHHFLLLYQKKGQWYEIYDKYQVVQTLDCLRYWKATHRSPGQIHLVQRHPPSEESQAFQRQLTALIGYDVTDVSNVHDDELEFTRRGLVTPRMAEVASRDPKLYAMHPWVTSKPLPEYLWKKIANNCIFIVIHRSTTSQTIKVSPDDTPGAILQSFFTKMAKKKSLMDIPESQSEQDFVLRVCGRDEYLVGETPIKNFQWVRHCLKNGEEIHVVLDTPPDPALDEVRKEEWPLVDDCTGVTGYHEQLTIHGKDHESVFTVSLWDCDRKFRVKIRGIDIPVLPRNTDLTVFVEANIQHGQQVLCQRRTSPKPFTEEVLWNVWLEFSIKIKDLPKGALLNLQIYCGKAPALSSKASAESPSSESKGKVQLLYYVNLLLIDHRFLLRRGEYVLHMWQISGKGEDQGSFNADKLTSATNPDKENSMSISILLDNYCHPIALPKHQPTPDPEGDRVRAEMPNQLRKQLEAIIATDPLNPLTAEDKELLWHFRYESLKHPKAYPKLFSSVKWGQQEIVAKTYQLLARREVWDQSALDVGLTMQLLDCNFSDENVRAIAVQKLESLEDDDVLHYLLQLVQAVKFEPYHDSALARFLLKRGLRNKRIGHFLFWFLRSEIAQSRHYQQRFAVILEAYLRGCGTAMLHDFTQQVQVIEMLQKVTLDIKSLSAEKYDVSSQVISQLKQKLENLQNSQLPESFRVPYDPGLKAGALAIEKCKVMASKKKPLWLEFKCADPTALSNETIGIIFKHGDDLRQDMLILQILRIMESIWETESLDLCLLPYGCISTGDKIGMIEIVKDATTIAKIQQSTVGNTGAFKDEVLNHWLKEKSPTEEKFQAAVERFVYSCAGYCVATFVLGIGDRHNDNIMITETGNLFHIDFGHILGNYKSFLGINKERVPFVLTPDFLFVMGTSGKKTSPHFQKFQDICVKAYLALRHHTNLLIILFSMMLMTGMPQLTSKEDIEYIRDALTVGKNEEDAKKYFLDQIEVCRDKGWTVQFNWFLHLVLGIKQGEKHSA

Structure (SMILES)	IC50 [nM]
COC(=O)c1nn(-c2ccccc2C)c2c1CCc1nc(NC(C)=O)sc1-2	< 800
CC(=O)Nc1nc2c(s1)-c1c(c(C(C)C)nn1-c1ccc(C(=O)N[C@H]3CC[C@@H](N4CCCC4)CC3)cc1Cl)CC2	< 800
CC(=O)Nc1nc2c(s1)-c1c(c(-c3ccco3)nn1-c1ccccc1F)CC2	< 800
CC(=O)Nc1nc2c(s1)-c1nc(C3CC3)ncc1CC2	< 800
CC(=O)Nc1nc2c(s1)-c1c(cnn1-c1ccc(C(=O)NCCc3cn[nH]c3)cc1)CC2	< 800
CC(=O)Nc1nc2c(s1)-c1c(cnn1-c1ccc(F)cc1)CC2	< 800
CC(=O)Nc1nc2c(s1)-c1c(cnn1-c1ccc(Cl)cc1)C2	< 800
CC(=O)Nc1nc2c(s1)-c1c(cnn1-c1ccc(C(=O)N(C)CC(C)O)cc1)CC2 (stereo not drawn)	< 800
NC(=O)Nc1nc2c(s1)-c1nc(-c3ccccc3)ncc1CC2	< 800
CC(=O)Nc1nc2c(s1)-c1nn(C(=O)C3CC3)cc1CC2	< 800
CC(=O)Nc1nc2c(s1)-c1c(cnn1-c1ccc(C(=O)N[C@H](C(N)=O)[C@@H](C)O)cc1Cl)CC2	< 800
CC(=O)Nc1nc2c(s1)-c1c(cnn1-c1ccc3nc[nH]c3c1)CC2	< 800
CC(=O)Nc1nc2c(s1)-c1c(cnn1-c1ccc(OC(F)(F)F)cc1)CC2	< 800
CC(=O)Nc1nc2c(s1)-c1c(cnn1-c1ccc(C(=O)N[C@H]3CC[C@@H](N4CCC(C)(C)CC4)CC3)cc1)CC2	< 800
CC(=O)Nc1nc2c(s1)-c1c(c(C(C)C)nn1-c1ccc(C(=O)N(C)Cc3ccncc3)cc1Cl)CC2	< 800
CC(=O)Nc1nc2c(s1)-c1c(cnn1-c1ccc3cn[nH]c3c1)CC2	< 800
CC(=O)Nc1nc2c(s1)-c1c(c(C(C)C)nn1-c1ccc(C(=O)NCc3ccncc3)cc1Cl)CC2	< 800
CC(=O)Nc1nc2c(s1)-c1c(c(-c3cn(C)cn3)nn1-c1ccccc1C(F)(F)F)CC2	< 800
CC(=O)Nc1nc2c(s1)-c1c(cnn1C(=O)C(C)C)CC2	< 800

The next lines start with the values.

IC50 [nM]	Structure (SMILES)
< 800	CC(=O)Nc1nc2c(s1)-c1nc(N3CCCOCC3)ncc1CC2
< 800	CC(=O)Nc1nc2c(s1)-c1c(cnn1-c1ccc(C(=O)N[C@H]3CC[C@H](N4C[C@@H](C)O[C@@H](C)C4)CC3)cc1)CC2
< 800	CNC(=O)Nc1nc2c(s1)-c1nc(-c3ccccc3C)ncc1CC2
< 800	CC(=O)Nc1nc2c(s1)-c1c(c(-c3ccco3)nn1-c1ccccc1Br)CC2
< 800	Cc1ccccc1-c1ncc2c(n1)-c1sc(NC(N)=O)nc1CC2
< 800	CCS(=O)(=O)c1ncc2c(n1)-c1sc(NC(C)=O)nc1CC2
< 800	CCN1CCCC(NC(=O)c2ccc(-n3ncc4c3-c3sc(NC(C)=O)nc3CC4)cc2)C1 (stereo not drawn)
< 800	CC(=O)Nc1nc2c(s1)-c1c(cnn1-c1ccc(CC(=O)N3CCNC(=O)C3)cc1)CC2
< 800	CC(=O)Nc1nc2c(s1)-c1c(cnn1-c1ccc(Br)cc1)CC2
< 800	CC(=O)Nc1nc2c(s1)-c1c(cnn1-c1ccc(C(=O)N3CCC4(CCN(C)C4)C3)cc1)CC2 (stereo not drawn)
< 800	Cc1ccccc1-c1ncc2c(n1)-c1sc(NC(=O)N(C)C)nc1CC2
< 800	CN(C)CCCC(=O)Nc1nc2c(s1)-c1c(cnn1-c1ccccc1)C2
< 800	CN(C)C(=O)Nc1nc2c(s1)-c1c(cnn1-c1ccccc1)CC2
< 800	CC(=O)Nc1nc2c(s1)-c1c(cnn1-c1ccccc1C)CC2
< 800	CC(=O)Nc1nc2c(s1)-c1c(cnn1-c1cccc(C)c1C)CC2
< 800	CC(=O)Nc1nc2c(s1)-c1c(cnn1-c1ccc(C(=O)N[C@H]3CC[C@@H](N4CCN(CC5CC5)CC4)CC3)cc1)CC2
< 800	CC(=O)Nc1nc2c(s1)-c1c(cnn1-c1ccc(C(=O)N[C@H](CCCCN)C(N)=O)cc1Cl)CC2
< 800	CC(=O)Nc1nc2c(s1)-c1c(cnn1-c1ccc(C(=O)NCc3cccnc3)cc1)CC2
< 800	CC(=O)Nc1nc2c(s1)-c1c(cnn1-c1ccc(C(=O)NCc3nccn3C)cc1)CC2
